Consider ten compounds from PubChem BioAssay (NCI).

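Grown in 96-well plates, cells were treated for 48 hours with each compound at five concentrations. Insufficient inhibition: endpoint recorded as highest concentration tested. Here, GI50 denotes the concentration required for 50% inhibition of growth. TGI: concentration producing complete growth inhibition.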

What all share (experiment): growth of human tumour cells (NCI), 48 h
Experiment [1] concerns 786-0 renal.
Experiment [2] has as its system ACHN renal.
In experiment [3] the test system is CCRF-CEM leukemia.
The subject of experiment [4] is DMS 114 small cell lung.
For experiment [5], the system named is EKVX NSCLC.
The subject of experiment [6] is HCT-116 colon.
Experiment [7] has as its system OVCAR-4 ovarian.
Experiment [8] concerns SK-MEL-28 melanoma.
The test system of experiment [9] is SNB-75 CNS.
In experiment [10] the test system is KM12 colon.

For `C/C(=N\O)C(CN1CCCCC1)C(c1ccccc1)c1c(O)c2ccccc2oc1=O` (centres undefined), the TGI in experiment [1] is over 100 µM; in experiment [2] it was over 100 µM; in [3], over 10 µM; in experiment [4], over 100 µM; in experiment [5] it was over 100 µM; in [6] it was over 100 µM. Besides, the TGI in experiment [7], in experiment [8] and in experiment [9] was over 100 µM in each case.
Consider `O=P1(O)c2ccccc2Nc2cc(C(F)(F)F)ccc21`, for which the TGI in experiment [1], in experiment [2], in experiment [3], in experiment [4], in [5] and in [6] was over 100 µM throughout. The TGI in experiment [10], in experiment [7], in [8] and in experiment [9] was over 100 µM throughout.
For the compound `C[CH2][Sn]([CH2]C)([O]C(=O)c1cccc(F)c1)[O][Sn]([CH2]C)([CH2]C)[O]C(=O)c1cccc(F)c1`, the GI50 in experiment [1] is 15.8 µM; in [2], 18.7 µM; in [3], 4.28 µM; in [4], 14 µM; in experiment [5] it was 15.3 µM; in [6] it was 17.8 µM. In addition, the GI50 in experiment [10] is over 100 µM; in experiment [7] it was 22.8 µM; in [8], 16.7 µM; in experiment [9] it was 16.9 µM. Also, the TGI in experiment [1] was found to be 29.3 µM; in [2], 32.7 µM; in experiment [3], 34.7 µM; in experiment [4], 27.3 µM; in experiment [5], 29.1 µM; in experiment [6] it was 32.5 µM. For the same compound, the TGI in experiment [10] is over 100 µM; in experiment [7] it was 46.7 µM; in [8], 30.5 µM; in [9], 31.9 µM.
Take `C=C(C)[C@H](O)C(O)CC(C)[C@@H]1CCC23CC12CCC1[C@@]2(C)CCC(OC(C)=O)C(C)(C)C2CC(OC2OC(COC(C)=O)C(O)C(O)C2O)[C@]13C` (some centres undefined): the TGI was determined as 13.7 µM in experiment [1]; 12.6 µM in experiment [2]; 9.7 µM in experiment [3]; 10.7 µM in [4]; 12.7 µM in [5]; 9.27 µM in experiment [6]. For the same compound, the TGI in experiment [10] stood at 11.3 µM; in experiment [7], 14 µM; in [8], 13.3 µM; in experiment [9], 9.03 µM.
With `CC1(C)C2C/C(=C\c3ccccc3)C(=O)C1C2` (centres undefined), the TGI in experiment [1], in [2], in experiment [3], in experiment [4], in [5] and in experiment [6] was over 100 µM throughout. Moreover, the TGI is over 100 µM in [10], over 100 µM in experiment [7], over 100 µM in experiment [8] and 97.5 µM in experiment [9].
For the compound `C[CH2][Sn]([Cl])([Cl])[CH2]C`, the GI50 in experiment [1] was 28.9 µM; in experiment [2] it was 24.1 µM; in [3], 9.5 µM; in [4] it was 16.2 µM; in experiment [5], over 65.6 µM; in experiment [6], over 63.4 µM. Further, the GI50 in [10] was over 100 µM; in [7] it was over 100 µM; in experiment [8] it was 19.8 µM; in experiment [9], 24.9 µM. Moreover, the TGI was over 56 µM in experiment [1]; 58.5 µM in experiment [2]; 39.9 µM in [3]; 31.4 µM in experiment [4]; over 100 µM in experiment [5]; over 100 µM in experiment [6]. Also, the TGI was over 100 µM in experiment [10], over 100 µM in experiment [7], 36.3 µM in [8] and over 61.7 µM in experiment [9].
For the compound `NC(CCSC(F)F)C(=O)O` (centres undefined), the TGI in experiment [1], in experiment [2], in experiment [3], in [4], in experiment [5] and in experiment [6] was over 100 µM throughout. The TGI in experiment [10], in [7], in [8] and in experiment [9] was over 100 µM in each case.
Take `COc1cc([C@@H]2OC(=O)C3C2C(=O)O[C@H]3c2cc(OC)c(OC)c(OC)c2)cc(OC)c1OC` (some centres undefined): the TGI in [1], in [2], in experiment [3], in experiment [4], in [5] and in experiment [6] was over 100 µM in each case. The TGI in [10], in experiment [7], in experiment [8] and in [9] was over 100 µM each time.
Turning to `Cc1cccc2c1C/C(=C1\CCc3c(C)cccc31)C2=O`, the TGI in [1], in [2], in experiment [3], in experiment [4], in [5] and in [6] was over 100 µM in each case. For the same compound, the TGI in [10], in [7], in experiment [8] and in experiment [9] was over 100 µM throughout.
`C/C(=C\CC[C@]1(C)OC(C)(C)OC1CC/C(C)=C/CO[Si](c1ccccc1)(c1ccccc1)C(C)(C)C)CC/C=C/CO[Si](C)(C)C(C)(C)C` (some centres undefined): the TGI in experiment [1], in experiment [2], in experiment [3], in experiment [4], in [5] and in [6] was over 100 µM throughout. The TGI in [10], in [7], in experiment [8] and in experiment [9] was over 100 µM throughout.
